Measured values taken from patent US20060099568A1, “Signals and molecular species involved in senescence” (priority 2002, published 2006).

Experiments:
PKA = assay: measurement of protein kinase A activity (Kemptide, [γ-32P]ATP); format: cell-based, human; details: 30 μg/ml LPA
Procedure: FIG. 10 represents LPA-dependent PKA activity and CREB phosphorylation in presenescent and near-senescent fibroblasts. Subconfluent presenescent (passage 8, Pa 8) and near-senescent (passage 24, Pa 24) fibroblasts were serum-starved for 2 days and treated with 30 μg/ml LPA for the indicated times. The PKA activity (A) was determined in cell homogenates with kemptide and [γ^32P]ATP as substrates. The radioactivity incorporated into kemptide was measured by a beta-counter and the enzyme activity was calculated as pmol/min/mg protein. The data represents an average of triplicate experiments. The level of phospho-CREB (B) was measured by Western blot analysis using an anti-phospho-CREB antibody.
LPA-treated cells were harvested and homogenized in ice-cold homogenization buffer containing 0.25 M sucrose, 10 mM Tris-HCl, pH 7.5, 10 MM MgCl2, 2 mM EGTA, and protease inhibitors. Homogenates were centrifuged at 20,000×g at 4° C. for 20 min. Protein kinase A assays were performed as described previously (Yang et al., 1999). […] The paper was washed once with 0.75% phosphoric acid and the radioactivity incorporated into Kemptide was quantified on a scintillation counter (Model Tri-Carb 1600 CA, Packard Instrument Company). […] PKI-inhibitable kinase activity was calculated and the data were reported as percent of total PKA activity. […]

PKC = PKC activation (aggregation and translocation of PKC-α, confocal microscopy); format: cell-based, human; details: near-senescent cells (passage 29); 30 μg/ml LPA
Procedure: FIG. 16 represents PKC activation by LPA in presenescent and near-senescent human diploid fibroblasts. Subconfluent presenescent (passage 10, Pa 10) and near-senescent (passage 29, Pa 29) fibroblasts were serum-starved for 2 days and treated with 30 μg/ml LPA for the indicated times. PKC activation was indicated by aggregation and translocation of PKC proteins into the plasma membrane. PKC-α was detected under a confocal microscopy system with polyclonal anti-PKC-α antibodies and FITC-conjugated secondary antibodies.

ERK1 and ERK2 = assay: ERK activation, phospho-ERK Western blot; format: cell-based, human
Procedure: Serum-starved presenescent (passage 10, Pa 10) and near-senescent (passage 29, Pa 29) fibroblasts were treated with 30 μg/ml LPA for the indicated times. The level of phospho-ERK in the cytosolic fraction from each cell, as an indication of ERK activation, was measured by Western blot analysis employing anti-phospho-ERK antibody.
The expression levels of signaling proteins were examined by Western blot analysis, as described previously (Yeo et al., 2000a). Total cell lysates were prepared in a lysis buffer containing 50 mM Tris-HCl, pH 7.5, containing 150 mM NaCl, 2 mM EDTA, 1 mM EGTA, 1 mM Na3VO4, 10 mM NaF, 1 mM DTT, 1 mM PMSF, 25 μg/ml leupeptin, 25 μg/ml aprotinin, 5 mM benzamidine, and 1% Nonidet P-40. The protein concentrations of the lysates were determined using a BCA protein assay kit, as described by the protocol supplied by the manufacturer. Cell lysates containing equal amounts of protein were resolved by SDS-polyacrylamide gel electrophoresis and transferred onto Immobilon PVDF membranes. […] To examine the level of phospholipase D 1/2, the immunoprecipitated protein obtained using 10 μl of anti-phospholipase D 1 anti-sera (Box45, ESTP4) was analyzed by Western blot against polyclonal anti-phospholipase D 1 antibodies (1:20 dilution of NC STP4 anti-serum).

[1] = test system: human diploid fibroblasts; assay: LPA-stimulated cell proliferation (viable cell count or MTT assay); format: cell-based; details: 4 days treatment
Text: The optical density at 570 nm was plotted (A). The actual viable cell numbers were plotted (B).
In order to study the role of LPA-induced cAMP signaling, the inventors further compared LPA-stimulated cell proliferation between presenescent and near-senescent cells. After 4 days treatment with vehicle or LPA, the level of viable cells were counted or measured by MTT assay.

Phospholipase C (PLC) = details: near-senescent cells (passage 23) vs presenescent (passage 6); PDGF 50 ng/ml, LPA 1 μg/ml, 20 min, 20 mM LiCl

Substance: lysophosphatidic acid [LPA]
- PKA activity (PKA; near-senescent cells): increased
- PKA activity (PKA; presenescent cells): decreased
- PKC activation (PKC): further increase in PKC activation
- level of phospho-ERK (ERK1 and ERK2; near-senescent HDF (passage 29), 30 μg/ml LPA): did not increase further
- ERK1 and ERK2 activation (phospho-ERK) (ERK1 and ERK2; presenescent HDF (passage 10), 30 μg/ml LPA for 10-30 min): stimulated
- rate of LPA-stimulated proliferation ([1]; near-senescent cells): partially decreased
- cell proliferation ([1]; presenescent cells): stimulated proliferation of presenescent cells dose-dependently
- agonist-stimulated inositol phosphates (IPs) production (Phospholipase C (PLC)): enhanced
